Data: ChEMBL document CHEMBL5543121, “Drug Repurposing of ACT001 to Discover Novel Promising Sulfide Prodrugs with Improved Safety and Potent Activity for Neutrophil-Mediated Antifungal Immunotherapy” (J Med Chem, 2024)
Activity calls are given as the source filed them. The rule behind the calls is not given here.

Columns and labels:
[1] = Acute toxicity in C57BL/6 mouse assessed as effect on creatinine level in serum at 500 mg/kg, po administered as single dose and measured every day for 14 days; type: organism-based; conditions: in vivo, 336 h, time 14 day
[2] = Acute toxicity in C57BL/6 mouse assessed as change in lung weight at 500 mg/kg, po administered as single dose and measured after 14 days; type: organism-based; conditions: in vivo, 336 h, time 14 day
[3] = Subacute toxicity in C57BL/6 mouse assessed as change in heart weight at 100 mg/kg, po administered daily for 14 days; type: organism-based; conditions: in vivo, 336 h, time 14 day
[4] = Cytotoxicity against mouse neutrophils assessed as reduction in cell viability incubated for 16 hrs by flow cytometry analysis; type: toxicity, cell-based, Neutrophil
[5] = Acute toxicity in C57BL/6 mouse assessed as effect on ALT level in serum at 500 mg/kg, po administered as single dose and measured every day for 14 days; type: organism-based; conditions: in vivo, 336 h, time 14 day
[6] = Subacute toxicity in C57BL/6 mouse assessed as change in lung weight at 100 mg/kg, po administered daily for 14 days; type: organism-based; conditions: in vivo, 336 h, time 14 day
[7] = test system: Neutrophil; test: Downregulation of phosphorylated STAT3 protein level at Ser727 residue in curdlan induced mouse bone marrow neutrophils at 40 uM measured upto 60 mins by Western blot analysis; type: functional, cell-based
[8] = Acute toxicity in C57BL/6 mouse assessed as histopathological changes in liver at 500 mg/kg, po administered as single dose and measured after 14 days; type: organism-based; conditions: in vivo, 336 h, time 14 day
[9] = Clearance in male Sprague-Dawley rat at 2 mg/kg, iv by LC-MS/MS analysis; type: ADME, organism-based; conditions: in vivo
[10] = Subacute toxicity in C57BL/6 mouse assessed as body weight loss at 100 mg/kg, po administered daily for 14 days and measured every day; type: organism-based; conditions: in vivo, 336 h, time 14 day
[11] = Inhibition of fungal curdlan induced PD-L1 expression in mouse neutrophils assessed as reduction in PD-L1 positive Ly6G positive neutrophils incubated for 16 hrs by flow cytometry analysis; type: functional, cell-based; conditions: Neutrophil
[12] = Half life in male Sprague-Dawley rat at 10 mg/kg, po by LC-MS/MS analysis; type: ADME, organism-based; conditions: in vivo

For `C[C@@]1(O)CC[C@]23O[C@@]2(C)CC[C@@H]2[C@H](OC(=O)[C@H]2CS(=O)(=O)c2c(Cl)cccc2Cl)[C@@H]13`, the Activity [1] was “Non-Toxic”, the Activity [2] was “Non-Toxic” and the Activity [3] was “Non-Toxic”. For the same compound, the IC50 at 16 h [4] was greater than 320 µM, the Activity [5] was “Non-Toxic” and the Activity [6] was “Non-Toxic”. For the same compound, the Activity [7] was “Active”, the Activity [8] was “Non-Toxic” and the clearance [9] was 453 mL/min/kg. For the same compound, the Activity [10] was “Non-Toxic”, the IC50 [11] was 3.76 µM and the half-life [12] was 1.46 h.
